# Tested on: 266295-075-R-J1-PDC spheroid viability
# Assay: Anticancer human tumor 266295-075-R-J1-PDC patient-derived head and neck squamous carcinoma cell line growth inhibition [POLQ]
# Settings: spheroids with HUVEC and MSC; for IC50: curve of first compound; for viability, T/C: stronger effect = lower value
# How it was run: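 Growth inhibition in 3D: complex spheroids (tumor PDC, HUVEC, MSC) treated with POLQ inhibitor combinations; where Cmax unknown, highest tested concentration 10 microM, except SN-38 at 1 microM.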
# 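Note: spheroids exposed to compounds for seven days before readout.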
compound,measurement,setting,value
Nc1ccn(C2OC(CO)C(O)C2(F)F)c(=O)n1 (centres undefined) + Cc1cccc(N(C)C(=O)C2C(O)CCN2c2nc(C)cc(C(F)(F)F)c2C#N)c1,IC50,second compound 0.0316 µM,> 10 µM
same,IC50,second compound 0.1 µM,> 10 µM
same,IC50,second compound 0.316 µM,> 10 µM
same,IC50,second compound 1 µM,> 10 µM
same,IC50,second compound 3.16 µM,> 10 µM
same,IC50,second compound 10 µM,> 10 µM
same,"viability, T/C","second compound 0.0316 µM, first compound 0.0316 µM",93.5%
same,"viability, T/C","second compound 0.0316 µM, first compound 0.1 µM",81.9%
same,"viability, T/C","second compound 0.0316 µM, first compound 0.316 µM",81.5%
same,"viability, T/C","second compound 0.0316 µM, first compound 1 µM",68.3%
same,"viability, T/C","second compound 0.0316 µM, first compound 3.16 µM",79.5%
same,"viability, T/C","second compound 0.0316 µM, first compound 10 µM",69.4%
same,"viability, T/C","second compound 0.1 µM, first compound 0.0316 µM",85.8%
same,"viability, T/C","second compound 0.1 µM, first compound 0.1 µM",93%
same,"viability, T/C","second compound 0.1 µM, first compound 0.316 µM",79.6%
same,"viability, T/C","second compound 0.1 µM, first compound 1 µM",76%
same,"viability, T/C","second compound 0.1 µM, first compound 3.16 µM",83.3%
same,"viability, T/C","second compound 0.1 µM, first compound 10 µM",73.7%
same,"viability, T/C","second compound 0.316 µM, first compound 0.0316 µM",87.8%
same,"viability, T/C","second compound 0.316 µM, first compound 0.1 µM",78.5%
same,"viability, T/C","second compound 0.316 µM, first compound 0.316 µM",77%
same,"viability, T/C","second compound 0.316 µM, first compound 1 µM",94.9%
same,"viability, T/C","second compound 0.316 µM, first compound 3.16 µM",76.6%
same,"viability, T/C","second compound 0.316 µM, first compound 10 µM",72.4%
same,"viability, T/C","second compound 1 µM, first compound 0.0316 µM",99.8%
same,"viability, T/C","second compound 1 µM, first compound 0.1 µM",82.8%
same,"viability, T/C","second compound 1 µM, first compound 0.316 µM",86%
same,"viability, T/C","second compound 1 µM, first compound 1 µM",84.7%
same,"viability, T/C","second compound 1 µM, first compound 3.16 µM",80.8%
same,"viability, T/C","second compound 1 µM, first compound 10 µM",80.2%
same,"viability, T/C","second compound 3.16 µM, first compound 0.0316 µM",90.6%
same,"viability, T/C","second compound 3.16 µM, first compound 0.1 µM",96.9%
same,"viability, T/C","second compound 3.16 µM, first compound 0.316 µM",72.8%
same,"viability, T/C","second compound 3.16 µM, first compound 1 µM",78.1%
same,"viability, T/C","second compound 3.16 µM, first compound 3.16 µM",91%
same,"viability, T/C","second compound 3.16 µM, first compound 10 µM",67.1%
same,"viability, T/C","second compound 10 µM, first compound 0.0316 µM",86.8%
same,"viability, T/C","second compound 10 µM, first compound 0.1 µM",88.4%
same,"viability, T/C","second compound 10 µM, first compound 0.316 µM",72%
same,"viability, T/C","second compound 10 µM, first compound 1 µM",75.1%
same,"viability, T/C","second compound 10 µM, first compound 3.16 µM",82.1%
same,"viability, T/C","second compound 10 µM, first compound 10 µM",68.2%
CC(=O)O[C@H]1C(=O)[C@@]2(C)[C@H]([C@H](OC(=O)c3ccccc3)[C@]3(O)C[C@H](OC(=O)[C@H](O)[C@@H](NC(=O)c4ccccc4)c4ccccc4)C(C)=C1C3(C)C)[C@]1(OC(C)=O)CO[C@@H]1C[C@@H]2O + COC1C(OC(N)=O)C(O)C(Oc2ccc3c(O)c(NC(=O)c4ccc(O)c(CC=C(C)C)c4)c(=O)oc3c2C)OC1(C)C,IC50,second compound 0.0316 µM,> 3 µM
same,IC50,second compound 0.1 µM,> 3 µM
same,IC50,second compound 0.316 µM,> 3 µM
same,IC50,second compound 1 µM,> 3 µM
same,IC50,second compound 3.16 µM,> 3 µM
same,IC50,second compound 10 µM,> 3 µM
same,"viability, T/C","second compound 0.0316 µM, first compound 0.00949 µM",79.5%
same,"viability, T/C","second compound 0.0316 µM, first compound 0.03 µM",69.1%
same,"viability, T/C","second compound 0.0316 µM, first compound 0.0949 µM",63.3%
same,"viability, T/C","second compound 0.0316 µM, first compound 0.3 µM",86.2%
same,"viability, T/C","second compound 0.0316 µM, first compound 0.949 µM",75.6%
same,"viability, T/C","second compound 0.0316 µM, first compound 3 µM",71.3%
same,"viability, T/C","second compound 0.1 µM, first compound 0.00949 µM",92.3%
same,"viability, T/C","second compound 0.1 µM, first compound 0.03 µM",79%
same,"viability, T/C","second compound 0.1 µM, first compound 0.0949 µM",61.2%
same,"viability, T/C","second compound 0.1 µM, first compound 0.3 µM",73.2%
same,"viability, T/C","second compound 0.1 µM, first compound 0.949 µM",78.1%
same,"viability, T/C","second compound 0.1 µM, first compound 3 µM",69%
same,"viability, T/C","second compound 0.316 µM, first compound 0.00949 µM",93.6%
same,"viability, T/C","second compound 0.316 µM, first compound 0.03 µM",73.4%
same,"viability, T/C","second compound 0.316 µM, first compound 0.0949 µM",66.5%
same,"viability, T/C","second compound 0.316 µM, first compound 0.3 µM",67.4%
same,"viability, T/C","second compound 0.316 µM, first compound 0.949 µM",72.1%
same,"viability, T/C","second compound 0.316 µM, first compound 3 µM",81.2%
same,"viability, T/C","second compound 1 µM, first compound 0.00949 µM",76.9%
same,"viability, T/C","second compound 1 µM, first compound 0.03 µM",70%
same,"viability, T/C","second compound 1 µM, first compound 0.0949 µM",67.8%
same,"viability, T/C","second compound 1 µM, first compound 0.3 µM",80.7%
same,"viability, T/C","second compound 1 µM, first compound 0.949 µM",77.3%
same,"viability, T/C","second compound 1 µM, first compound 3 µM",65%
same,"viability, T/C","second compound 3.16 µM, first compound 0.00949 µM",81.9%
same,"viability, T/C","second compound 3.16 µM, first compound 0.03 µM",83.6%
same,"viability, T/C","second compound 3.16 µM, first compound 0.0949 µM",62.5%
same,"viability, T/C","second compound 3.16 µM, first compound 0.3 µM",75.5%
same,"viability, T/C","second compound 3.16 µM, first compound 0.949 µM",71.3%
same,"viability, T/C","second compound 3.16 µM, first compound 3 µM",75.2%
same,"viability, T/C","second compound 10 µM, first compound 0.00949 µM",85.6%
same,"viability, T/C","second compound 10 µM, first compound 0.03 µM",72.3%
same,"viability, T/C","second compound 10 µM, first compound 0.0949 µM",62.8%
same,"viability, T/C","second compound 10 µM, first compound 0.3 µM",60.5%
same,"viability, T/C","second compound 10 µM, first compound 0.949 µM",75.5%
same,"viability, T/C","second compound 10 µM, first compound 3 µM",74.7%
